system: recombinant NL4-3 virus (Renilla luciferase in nef, Gag P373S); test: HIV cell culture assay (luciferase reporter, MT-2 cells); assay type: cell-based, HIV-1; conditions: MT-2 cells infected for 4-5 days with NLRluc recombinants; luciferase activity; serial dilutions of inhibitor
In short: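 MT-2 cells infected with recombinant NL4-3 carrying Renilla luciferase in place of part of nef and Gag P373S, virus made by 293T transfection. Infection ran 4-5 days with serial inhibitor dilutions. Antiviral activity read as luciferase activity (Dual Luciferase reagents mixed with lysis buffer).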

| Compound | EC50 [nM] |
| --- | --- |
| CC(CO)[C@@H]1CC[C@]2(NCCN3CCS(=O)(=O)CC3)CC[C@]3(C)[C@H](CC[C@@H]4[C@@]5(C)CC=C(c6ccc(C(=O)O)c(F)c6)C(C)(C)[C@@H]5CC[C@]43C)[C@@H]12 (single isomer, unassigned) [Example A4] | 2.34 |
| CC(N)[C@@H]1CC[C@]2(NCCN3CCS(=O)(=O)CC3)CC[C@]3(C)[C@H](CC[C@@H]4[C@@]5(C)CC=C(c6ccc(C(=O)O)cc6)C(C)(C)[C@@H]5CC[C@]43C)[C@@H]12 (single isomer, unassigned) [Example B41] | 40 |
| CC(C(=O)O)[C@@H]1CC[C@]2(NCCN3CCS(=O)(=O)CC3)CC[C@]3(C)[C@H](CC[C@@H]4[C@@]5(C)CC=C(c6ccc(C(=O)O)c(F)c6)C(C)(C)[C@@H]5CC[C@]43C)[C@@H]12 (stereo partly drawn) [Example A6, 4-((1R,3aS,5aR,5bR,7aR,11aS,11bR,13aR,13bR)-1-(1-carboxyethyl)-3a-((2-(1,1-dioxidothiomorpholino)ethyl)amino)-5a,5b,8,8,11a-pentamethyl-2,3,3a,4,5,5a,5b,6,7,7a,8,11,11a,11b,12,13,13a,13b-octadecahydro-1H-cyclopenta[a]chrysen-9-yl)-2-fluorobenzoic acid] | 390 |

same assay, conditions: Renilla, NL43, MT-2 cells infected for 4-5 days with NLRluc recombinants; luciferase activity; serial dilutions of inhibitor

| Compound | EC50 [nM] |
| --- | --- |
| COC(=O)NC(C)[C@@H]1CC[C@]2(NCCN3CCS(=O)(=O)CC3)CC[C@]3(C)[C@H](CC[C@@H]4[C@@]5(C)CC=C(c6ccc(C(=O)O)cc6)C(C)(C)[C@@H]5CC[C@]43C)[C@@H]12 (stereo partly drawn) [Example B22, 4-((1R,3aS,5aR,5bR,7aR,11aS,11bR,13aR,13bS)-3a-((2-(1,1-dioxidothiomorpholino)ethyl)amino)-1-(1-((methoxycarbonyl)amino)ethyl)-5a,5b,8,8,11a-pentamethyl-2,3,3a,4,5,5a,5b,6,7,7a,8,11,11a,11b,12,13,13a,13b-octadecahydro-1H-cyclopenta[a]chrysen-9-yl)benzoic acid] | 1.02 |
| CC(=NO)[C@@H]1CC[C@]2(NCCN3CCS(=O)(=O)CC3)CC[C@]3(C)[C@H](CC[C@@H]4[C@@]5(C)CC=C(c6ccc(C(=O)O)cc6)C(C)(C)[C@@H]5CC[C@]43C)[C@@H]12 (single isomer, unassigned) [Example B14] | 3.75 |
| COC(=O)N[C@@H]1CC[C@]2(NCCN3CCS(=O)(=O)CC3)CC[C@]3(C)[C@H](CC[C@@H]4[C@@]5(C)CC=C(c6ccc(C(=O)O)cc6)C(C)(C)[C@@H]5CC[C@]43C)[C@@H]12 [Example B26, 4-((1R,3aR,5aR,5bR,7aR,11aS,11bR,13aR,13bS)-3a-((2-(1,1-dioxidothiomorpholino)ethyl)amino)-1-((methoxycarbonyl)amino)-5a,5b,8,8,11a-pentamethyl-2,3,3a,4,5,5a,5b,6,7,7a,8,11,11a,11b,12,13,13a,13b-octadecahydro-1H-cyclopenta[a]chrysen-9-yl)benzoic acid] | 2.85 |
| CC1(C)C(c2ccc(C(=O)O)cc2)=CC[C@]2(C)[C@H]3CC[C@@H]4[C@H]5[C@H](NC(=O)c6ccc(C7(C(F)(F)F)N=N7)cc6)CC[C@]5(NCCN5CCS(=O)(=O)CC5)CC[C@@]4(C)[C@]3(C)CC[C@@H]12 [Example B45, 4-((1R,3aR,5aR,5bR,7aR,11aS,11bR,13aR,13bS)-3a-((2-(1,1-dioxidothiomorpholino)ethyl)amino)-5a,5b,8,8,11a-pentamethyl-1-(4-(3-(trifluoromethyl)-3H-diazirin-3-yl)benzamido)-2,3,3a,4,5,5a,5b,6,7,7a,8,11,11a,11b,12,13,13a,13b-octadecahydro-1H-cyclopenta[a]chrysen-9-yl)benzoic acid] | 50 |
| CC1(C)C(c2ccc(C(=O)O)cc2)=CC[C@]2(C)[C@H]3CC[C@@H]4[C@H]5[C@H](CO)CC[C@]5(NCCN5CCS(=O)(=O)CC5)CC[C@@]4(C)[C@]3(C)CC[C@@H]12 [Example B42, 4-((1R,3aS,5aR,5bR,7aR,11aS,11bR,13aR,13bS)-3a-((2-(1,1-dioxidothiomorpholino)ethyl)amino)-1-(hydroxymethyl)-5a,5b,8,8,11a-pentamethyl-2,3,3a,4,5,5a,5b,6,7,7a,8,11,11a,11b,12,13,13a,13b-octadecahydro-1H-cyclopenta[a]chrysen-9-yl)benzoic acid] | 40 |
| C=C(CN(C)C)[C@@H]1CC[C@]2(C(=O)O)CC[C@]3(C)[C@H](CC[C@@H]4[C@@]5(C)CC=C(c6ccc(C(=O)O)cc6)C(C)(C)[C@@H]5CC[C@]43C)[C@@H]12 [Example 3, (1R,3aS,5aR,5bR,7aR,11aS,11bR,13aR,13bS)-9-(4-carboxyphenyl)-1-(3-(dimethylamino)prop-1-en-2-yl)-5a,5b,8,8,11a-pentamethyl-2,3,3a,4,5,5a,5b,6,7,7a,8,11,11a,11b,12,13,13a,13b-octadecahydro-1H-cyclopenta[a]chrysene-3a-carboxylic acid] | 100 |
| CC1(C)C(c2ccc(C(=O)O)cc2)=CC[C@]2(C)[C@H]3CC[C@@H]4[C@H]5[C@H](NC(=O)C(F)(F)F)CC[C@]5(NCCN5CCS(=O)(=O)CC5)CC[C@@]4(C)[C@]3(C)CC[C@@H]12 [Example B43, 4-((1R,3aR,5aR,5bR,7aR,11aS,11bR,13aR,13bS)-3a-((2-(1,1-dioxidothiomorpholino)ethyl)amino)-5a,5b,8,8,11a-pentamethyl-1-(2,2,2-trifluoroacetamido)-2,3,3a,4,5,5a,5b,6,7,7a,8,11,11a,11b,12,13,13a,13b-octadecahydro-1H-cyclopenta[a]chrysen-9-yl)benzoic acid] | 2.12 |
| CC1(C)C(c2ccc(C(=O)O)cc2)=CC[C@]2(C)[C@H]3CC[C@@H]4[C@H]5[C@H](NC(=O)N6CCCC6)CC[C@]5(NCCN5CCS(=O)(=O)CC5)CC[C@@]4(C)[C@]3(C)CC[C@@H]12 [Example B30, 4-((1R,3aR,5aR,5bR,7aR,11aS,11bR,13aR,13bS)-3a-((2-(1,1-dioxidothiomorpholino)ethyl)amino)-5a,5b,8,8,11a-pentamethyl-1-(pyrrolidine-1-carboxamido)-2,3,3a,4,5,5a,5b,6,7,7a,8,11,11a,11b,12,13,13a,13b-octadecahydro-1H-cyclopenta[a]chrysen-9-yl)benzoic acid] | 2.96 |
| C=C(COCCN1CCOCC1)[C@@H]1CC[C@]2(C(=O)NCCNCCO)CC[C@]3(C)[C@H](CC[C@@H]4[C@@]5(C)CC=C(c6ccc(C(=O)O)cc6)C(C)(C)[C@@H]5CC[C@]43C)[C@@H]12 [Example 13, 4-((1R,3aS,5aR,5bR,7aR,11aS,11bR,13aR,13bS)-3a-(2-(2-hydroxyethylamino)ethylcarbamoyl)-5a,5b,8,8,11a-pentamethyl-1-(3-(2-morpholinoethoxy)prop-1-en-2-yl)-2,3,3a,4,5,5a,5b,6,7,7a,8,11,11a,11b,12,13,13a,13b-octadecahydro-1H-cyclopenta[a]chrysen-9-yl)benzoic acid] | 1.97 |
| C=C(CNCCO)[C@@H]1CC[C@]2(C(=O)O)CC[C@]3(C)[C@H](CC[C@@H]4[C@@]5(C)CC=C(c6ccc(C(=O)O)cc6)C(C)(C)[C@@H]5CC[C@]43C)[C@@H]12 [Example 2, (1R,3aS,5aR,5bR,7aR,11aS,11bR,13aR,13bS)-9-(4-carboxyphenyl)-1-(3-(2-hydroxyethylamino)prop-1-en-2-yl)-5a,5b,8,8,11a-pentamethyl-2,3,3a,4,5,5a,5b,6,7,7a,8,11,11a,11b,12,13,13a,13b-octadecahydro-1H-cyclopenta[a]chrysene-3a-carboxylic acid] | 140 |
| CC(=O)[C@@H]1CC[C@]2(N)CC[C@]3(C)[C@H](CC[C@@H]4[C@@]5(C)CC=C(c6ccc(C(=O)O)cc6)C(C)(C)[C@@H]5CC[C@]43C)[C@@H]12 [Example B46, 4-((1R,3aS,5aR,5bR,7aR,11aS,11bR,13aR,13bS)-1-acetyl-3a-amino-5a,5b,8,8,11a-pentamethyl-2,3,3a,4,5,5a,5b,6,7,7a,8,11,11a,11b,12,13,13a,13b-octadecahydro-1H-cyclopenta[a]chrysen-9-yl)benzoic acid] | 290 |
| CN[C@]12CC[C@@H](C3(C)CC3)[C@@H]1[C@H]1CC[C@@H]3[C@@]4(C)CC[C@H](c5ccc(C(=O)O)cc5)C(C)(C)[C@@H]4CC[C@@]3(C)[C@]1(C)CC2 [Example B55] | 1.51 |
| CC([C@@H]1CC[C@]2(NCCN3CCS(=O)(=O)CC3)CC[C@]3(C)[C@H](CC[C@@H]4[C@@]5(C)CC=C(c6ccc(C(=O)O)cc6)C(C)(C)[C@@H]5CC[C@]43C)[C@@H]12)N1CCOCC1 (stereo partly drawn) [Example B20, 4-((1R,3aS,5aR,5bR,7aR,11aS,11bR,13aR,13bS)-3a-((2-(1,1-dioxidothiomorpholino)ethyl)amino)-5a,5b,8,8,11a-pentamethyl-1-(1-morpholinoethyl)-2,3,3a,4,5,5a,5b,6,7,7a,8,11,11a,11b,12,13,13a,13b-octadecahydro-1H-cyclopenta[a]chrysen-9-yl)benzoic acid] | 2.05 |
| CC(C)(O)[C@@H]1CC[C@]2(NCCN3CCS(=O)(=O)CC3)CC[C@]3(C)[C@H](CC[C@@H]4[C@@]5(C)CC=C(C6=CCC(C(=O)O)CC6)C(C)(C)[C@@H]5CC[C@]43C)[C@@H]12 (stereo partly drawn) [Example 22, 4-((1R,3aS,5aR,5bR,7aR,11aS,11bR,13aR,13bS)-3a-((2-(1,1-dioxidothiomorpholino)ethyl)amino)-1-(2-hydroxypropan-2-yl)-5a,5b,8,8,11a-pentamethyl-2,3,3a,4,5,5a,5b,6,7,7a,8,11,11a,11b,12,13,13a,13b-octadecahydro-1H-cyclopenta[a]chrysen-9-yl)cyclohex-3-enecarboxylic acid] | 0.519 |

From patent publication US20140221361A1, “C-19 MODIFIED TRITERPENOIDS WITH HIV MATURATION INHIBITORY ACTIVITY” (priority 2013, published 2014)
